From ChEMBL document CHEMBL1124001, “Synthesis and antileukemic activity of bis[[(carbamoyl)oxy]methyl]- substituted pyrrolo[2,1-a]isoquinolines, pyrrolo[1,2-a]quinolines, pyrrolo[2,1-a]isobenzazepines, and pyrrolo[1,2-a]benzazepines” (J Med Chem, 1988)

Experiments:
Mus musculus [1] = assay: Ratio of treated to that of untreated tumor-bearing control animals at 12.5 mg/kg intraperitoneally in CD2F1 mice was determined; type: functional; conditions: route intraperitoneal
Mus musculus [2] = assay: Net log cell kill was determined after injecting 25 mg/kg intraperitoneally in CD2F1 mice; type: functional; conditions: route intraperitoneal
Mus musculus [3] = assay: Ratio of treated to that of untreated tumor-bearing control animals at 3.16 mg/kg intraperitoneally in CD2F1 mice was determined; type: functional; conditions: route intraperitoneal
Mus musculus [4] = assay: Body weight change of test animals to that of control was determined after injection at 6.25 mg/kg intraperitoneally in CD2F1 mice; type: functional; conditions: route intraperitoneal
Mus musculus [5] = assay: Ratio of treated to that of untreated tumor-bearing control animals at 6.25 mg/kg intraperitoneally in CD2F1 mice was determined; type: functional; conditions: route intraperitoneal
Mus musculus [6] = assay: Body weight change of test animals to that of control was determined after injection at 25 mg/kg intraperitoneally in CD2F1 mice; type: functional; conditions: route intraperitoneal
Mus musculus [7] = assay: Toxicity day survivors was determined by the ratio of animals survived to that of test animals at 6.25 mg/kg intraperitoneally in CD2F1 mice; 6/6; type: organism-based; parameters: dose 6.25 mg/kg, route intraperitoneal; conditions: in vivo, ip
Mus musculus [8] = assay: Body weight change of test animals to that of control was determined after injection at 100 mg/kg intraperitoneally in CD2F1 mice; type: functional; conditions: route intraperitoneal
Mus musculus [9] = assay: Body weight change of test animals to that of control was determined after injection at 12.5 mg/kg intraperitoneally in CD2F1 mice; type: functional; conditions: route intraperitoneal
Mus musculus [10] = assay: Toxicity day survivors was determined by the ratio of animals survived to that of test animals at 50 mg/kg intraperitoneally in CD2F1 mice; 6/6; type: organism-based; parameters: dose 50 mg/kg, route intraperitoneal; conditions: in vivo, ip
Mus musculus [11] = assay: Body weight change of test animals to that of control was determined after injection at 3.16 mg/kg intraperitoneally in CD2F1 mice; type: functional; conditions: route intraperitoneal
Mus musculus [12] = assay: Toxicity day survivors was determined by the ratio of animals survived to that of test animals at 12.5 mg/kg intraperitoneally in CD2F1 mice; 6/6; type: organism-based; parameters: dose 12.5 mg/kg, route intraperitoneal; conditions: in vivo, ip
Mus musculus [13] = assay: Net log cell kill was determined after injecting 6.25 mg/kg intraperitoneally in CD2F1 mice; type: functional; conditions: route intraperitoneal
Mus musculus [14] = assay: Net log cell kill was determined after injecting 12.5 mg/kg intraperitoneally in CD2F1 mice; type: functional; conditions: route intraperitoneal
Mus musculus [15] = assay: Net log cell kill was determined after injecting 3.16 mg/kg intraperitoneally in CD2F1 mice; type: functional; conditions: route intraperitoneal
Mus musculus [16] = assay: Ratio of treated to that of untreated tumor-bearing control animals at 25 mg/kg intraperitoneally in CD2F1 mice was determined; type: functional; conditions: route intraperitoneal
Mus musculus [17] = assay: Toxicity day survivors was determined by the ratio of animals survived to that of test animals at 3.16 mg/kg intraperitoneally in CD2F1 mice; 6/6; type: organism-based; parameters: dose 3.16 mg/kg, route intraperitoneal; conditions: in vivo, ip
Mus musculus [18] = assay: Toxicity day survivors was determined by the ratio of animals survived to that of test animals at 25 mg/kg intraperitoneally in CD2F1 mice; 6/6; type: organism-based; parameters: dose 25 mg/kg, route intraperitoneal; conditions: in vivo, ip
Mus musculus [19] = assay: Body weight change of test animals to that of control was determined after injection at 50 mg/kg intraperitoneally in CD2F1 mice; type: functional; conditions: route intraperitoneal
Mus musculus [20] = assay: Toxicity day survivors was determined by the ratio of animals survived to that of test animals at 100 mg/kg intraperitoneally in CD2F1 mice; 3/6; type: organism-based; parameters: dose 100 mg/kg, route intraperitoneal; conditions: in vivo, ip
Mus musculus [21] = assay: Body weight change of test animals to that of control was determined after injection at 5 mg/kg intraperitoneally in CD2F1 mice; type: functional; conditions: route intraperitoneal
Mus musculus [22] = assay: Toxicity day survivors was determined by the ratio of animals survived to that of test animals at 20 mg/kg intraperitoneally in CD2F1 mice; 6/6; type: organism-based; parameters: dose 20 mg/kg, route intraperitoneal; conditions: in vivo, ip
Mus musculus [23] = assay: Body weight change of test animals to that of control was determined after injection at 10 mg/kg intraperitoneally in CD2F1 mice; type: functional; conditions: route intraperitoneal
Mus musculus [24] = assay: (§1) Body weight change of test animals to that of control was determined after injection at 2.5 mg/kg intraperitoneally in CD2F1 mice; type: functional; conditions: route intraperitoneal
Mus musculus [25] = assay: Ratio of treated to that of untreated tumor-bearing control animals at 5 mg/kg intraperitoneally in CD2F1 mice was determined; type: functional; conditions: route intraperitoneal
Mus musculus [26] = assay: Body weight change of test animals to that of control was determined after injection at 20 mg/kg intraperitoneally in CD2F1 mice; type: functional; conditions: route intraperitoneal
Mus musculus [27] = assay: Toxicity day survivors was determined by the ratio of animals survived to that of test animals at 40 mg/kg intraperitoneally in CD2F1 mice; 0/6; type: organism-based; parameters: dose 40 mg/kg, route intraperitoneal; conditions: in vivo, ip
Mus musculus [28] = assay: Toxicity day survivors was determined by the ratio of animals survived to that of test animals at 2.5 mg/kg intraperitoneally in CD2F1 mice; 6/6; type: organism-based; parameters: dose 2.5 mg/kg, route intraperitoneal; conditions: in vivo, ip
Mus musculus [29] = assay: as §1; type: ADME, organism-based; parameters: dose 2.5 mg/kg, route intraperitoneal; conditions: in vivo, ip
Mus musculus [30] = assay: Toxicity day survivors was determined by the ratio of animals survived to that of test animals at 10 mg/kg intraperitoneally in CD2F1 mice; 6/6; type: organism-based; parameters: dose 10 mg/kg, route intraperitoneal; conditions: in vivo, ip
Mus musculus [31] = assay: Net log cell kill was determined after injecting 5 mg/kg intraperitoneally in CD2F1 mice; type: functional; conditions: route intraperitoneal
Mus musculus [32] = assay: Net log cell kill was determined after injecting 2.5 mg/kg intraperitoneally in CD2F1 mice; type: functional; conditions: route intraperitoneal
Mus musculus [33] = assay: Ratio of treated to that of untreated tumor-bearing control animals at 2.5 mg/kg intraperitoneally in CD2F1 mice was determined; type: functional; conditions: route intraperitoneal
Mus musculus [34] = assay: Toxicity day survivors was determined by the ratio of animals survived to that of test animals at 5 mg/kg intraperitoneally in CD2F1 mice; 6/6; type: organism-based; parameters: dose 5 mg/kg, route intraperitoneal; conditions: in vivo, ip
Mus musculus [35] = assay: Net log cell kill was determined after injecting 10 mg/kg intraperitoneally in CD2F1 mice; type: functional; conditions: route intraperitoneal
Mus musculus [36] = assay: Ratio of treated to that of untreated tumor-bearing control animals at 10 mg/kg intraperitoneally in CD2F1 mice was determined; type: functional; conditions: route intraperitoneal

COc1ccc2c(c1)CCn1c(C)c(COC(=O)NC(C)C)c(COC(=O)NC(C)C)c1-2
T/C (Mus musculus [1]): 153%
KE (Mus musculus [2]): -1.29
T/C (Mus musculus [3]): 142%
T-C (Mus musculus [4]): -2.1 g
T/C (Mus musculus [5]): 136%
T-C (Mus musculus [6]): -5.6 g
TDS (Mus musculus [7]): 6
T-C (Mus musculus [8]): -5.3 g
T-C (Mus musculus [9]): -3 g
TDS (Mus musculus [10]): 6
T-C (Mus musculus [11]): -1.1 g
TDS (Mus musculus [12]): 6
KE (Mus musculus [13]): -1.51
KE (Mus musculus [14]): -1.29
KE (Mus musculus [15]): -1.43
T/C (Mus musculus [16]): 153%
TDS (Mus musculus [17]): 6
TDS (Mus musculus [18]): 6
T-C (Mus musculus [19]): -6.6 g
TDS (Mus musculus [20]): 3

CNC(=O)OCc1c(COC(=O)NC)c2n(c1C)-c1ccccc1CCC2
T-C (Mus musculus [21]): -0.9 g
TDS (Mus musculus [22]): 6
T-C (Mus musculus [23]): -2.2 g
T-C (Mus musculus [24]): -1.7 g
T/C (Mus musculus [25]): 147%
T-C (Mus musculus [26]): -2.6 g
TDS (Mus musculus [27]): 0
TDS (Mus musculus [28]): 6
TDS (Mus musculus [29]): 6
TDS (Mus musculus [30]): 6
KE (Mus musculus [31]): 0.55
KE (Mus musculus [32]): 1.19
T/C (Mus musculus [33]): 154%
TDS (Mus musculus [34]): 6
KE (Mus musculus [35]): 1
T/C (Mus musculus [36]): 152%
